Measurements as given in patent US20140193827A1 (TEVA PHARMACEUTICAL INDUSTRIES, LTD., priority 2013, published 2014).

Test system: GA-primed murine splenocytes
Test: Tolerance method for assessing process variability

glatiramer acetate [GA]
AVG expression D8ERTD82E (probe ILMN_2731237): 8.974
AVG expression MYO1F (probe ILMN_2731760): 8.593
AVG expression CDC42EP3 (probe ILMN_2733185): 8.258
AVG expression TLR2 (probe ILMN_2733733): 8.191
AVG expression IL4I1 (probe ILMN_2733778): 13.39
AVG expression CD1D1 (probe ILMN_2734212): 8.262
AVG expression RAMP1 (probe ILMN_2734391): 7.212
AVG expression ISG20 (probe ILMN_2735615): 8.139
AVG expression IL4RA (probe ILMN_2738433): 6.897
AVG expression PDE2A (probe ILMN_2740407): 6.704
AVG expression NDRG3 (probe ILMN_2740628): 7.26
AVG expression IL17F (probe ILMN_2741201): 9.282
AVG expression NUPR1 (probe ILMN_2742042): 7.513
AVG expression CSRP3 (probe ILMN_2742068): 7.26
AVG expression SERPINA3F (probe ILMN_2742861): 9.63
AVG expression MATK (probe ILMN_2743902): 6.954
AVG expression GADD45G (probe ILMN_2744890): 10.65
AVG expression DOCK10 (probe ILMN_2749063): 7.866
AVG expression CSF2 (probe ILMN_2749412): 7.94
AVG expression SPATA13 (probe ILMN_2751037): 10.49
AVG expression 4931429111RIK (probe ILMN_2751111): 6.944
AVG expression PHXR4 (probe ILMN_2751603): 8.973
AVG expression 2210010N04RIK (probe ILMN_2752436): 7.364
AVG expression TGTP (probe ILMN_2754158): 7.894
AVG expression LTF (probe ILMN_2754364): 8.257
AVG expression CD84 (probe ILMN_2754698): 9.661
AVG expression FFAR2 (probe ILMN_2756046): 9.337
AVG expression D7BWG0611E (probe ILMN_2756438): 6.424
AVG expression ENO3 (probe ILMN_2757569): 8.71
AVG expression BC031353 (probe ILMN_2757807): 9.011
AVG expression PRTN3 (probe ILMN_2758029): 6.472
AVG expression SYPL (probe ILMN_2758720): 11.58
AVG expression TMEM66 (probe ILMN_2758878): 8.06
AVG expression CLIC4 (probe ILMN_2761109): 11.63
AVG expression LOC100041103 (probe ILMN_2761720): 7.612
AVG expression TBX21 (probe ILMN_2762983): 8.48
AVG expression BC032203 (probe ILMN_2763739): 10.17
AVG expression ASB2 (probe ILMN_2765759): 8.795
AVG expression CAMP (probe ILMN_2766604): 8.176
AVG expression OCIAD2 (probe ILMN_2766875): 6.716
AVG expression ATP1B1 (probe ILMN_2767615): 7.592
AVG expression IFI30 (probe ILMN_2767918): 10.97
AVG expression PIK3IP1 (probe ILMN_2769772): 7.746
AVG expression TIMP1 (probe ILMN_2769918): 6.577
AVG expression LOC100044439 (probe ILMN_2770066): 9.229
AVG expression IGH-VJ558 (probe ILMN_2772264): 10.58
AVG expression GLIPR2 (probe ILMN_2773900): 10.63
AVG expression HSD11B1 (probe ILMN_2774160): 8.176
AVG expression STFA1 (probe ILMN_2774410): 8.3801
AVG expression HIST1H1C (probe ILMN_2774537): 8.165
AVG expression SPO11 (probe ILMN_2777019): 6.908
AVG expression GCAT (probe ILMN_2777696): 8.955
AVG expression H2-DMA (probe ILMN_2777769): 12.53
AVG expression LTA (probe ILMN_2780247): 8.582
AVG expression CSRP3 (probe ILMN_2789650): 7.602
AVG expression CD177 (probe ILMN_2789900): 6.628
AVG expression IFNG (probe ILMN_2791459): 9.711
AVG expression RFTN2 (probe ILMN_2795178): 7.218
AVG expression IL12RB1 (probe ILMN_2799452): 7.405
AVG expression S100A9 (probe ILMN_2803674): 11.05
AVG expression TMEM108 (probe ILMN_2804559): 7.473
AVG expression PRM1 (probe ILMN_2806549): 6.894
AVG expression ACOT7 (probe ILMN_2807084): 9.352
AVG expression 3110001A13RIK (probe ILMN_2807335): 8.958
AVG expression PPIC (probe ILMN_2810882): 8.651
AVG expression LBH (probe ILMN_2816180): 11.09
AVG expression CPNE4 (probe ILMN_2818246): 7.052
AVG expression DUSP10 (probe ILMN_2818964): 8.287
AVG expression SC4MOL (probe ILMN_2823778): 9.801
AVG expression USP28 (probe ILMN_2828768): 7.665
AVG expression C330023M02RIK (probe ILMN_2833243): 9.988
AVG expression C330023M02RIK (probe ILMN_2833248): 8.672
AVG expression BRWD1 (probe ILMN_2834573): 7.683
AVG expression EG634650 (probe ILMN_2837493): 6.736
AVG expression ACTN1 (probe ILMN_2844996): 9.845
AVG expression PSAP (probe ILMN_2845080): 11.88
AVG expression KLHDC2 (probe ILMN_2845272): 12.06
AVG expression ACTB (probe ILMN_2846865): 9.645
AVG expression HIF1A (probe ILMN_2852034): 7.906
AVG expression TSPAN32 (probe ILMN_2852672): 9.543
AVG expression HIST1H1C (probe ILMN_2855315): 8.506
AVG expression GPR114 (probe ILMN_2856926): 9.59
AVG expression GBP6 (probe ILMN_2860645): 9.559
AVG expression GBP6 (probe ILMN_2860649): 8.264
AVG expression RHOD (probe ILMN_2862379): 6.304
AVG expression FCER1A (probe ILMN_2863390): 7.15
AVG expression OTTMUSG00000000971 (probe ILMN_2864309): 7.999
AVG expression CD83 (probe ILMN_2865016): 12.24
AVG expression GLDC (probe ILMN_2873750): 6.771
AVG expression LYZ (probe ILMN_2878071): 10.5
AVG expression TMEM66 (probe ILMN_2881296): 9.558
AVG expression LRRK2 (probe ILMN_2883267): 9.942
AVG expression PIRA3 (probe ILMN_2883326): 7.604
AVG expression CCR5 (probe ILMN_2888191): 7.88
AVG expression NSG2 (probe ILMN_2890515): 6.466
AVG expression RGS1 (probe ILMN_2897891): 8.707
AVG expression ATP2A3 (probe ILMN_2900462): 10.34
AVG expression GM484 (probe ILMN_2903169): 7.045
AVG expression GADD45G (probe ILMN_2903945): 12.68
AVG expression ICOS (probe ILMN_2906430): 9.445
AVG expression FCGRT (probe ILMN_2917497): 7.496
AVG expression SCD2 (probe ILMN_2919259): 7.493
AVG expression SLC25A1 (probe ILMN_2919263): 9.787
AVG expression OSM (probe ILMN_2919411): 9.631
AVG expression CASP6 (probe ILMN_2923865): 9.522
AVG expression MPO (probe ILMN_2925094): 6.333
AVG expression SIGLECH (probe ILMN_2928599): 6.936
AVG expression 9130211I03RIK (probe ILMN_2930552): 7.36
AVG expression IL4 (probe ILMN_2931334): 8.425
AVG expression TPI1 (probe ILMN_2932359): 11.19
AVG expression LYZS (probe ILMN_2939681): 6.97
AVG expression DGKA (probe ILMN_2940446): 10.5
AVG expression 4933439C20RIK (probe ILMN_2944601): 9.853
AVG expression HP (probe ILMN_2944824): 8.175
AVG expression RAgenericEF4 (probe ILMN_2945940): 7.203
AVG expression CBX7 (probe ILMN_2947234): 7.729
AVG expression ECM1 (probe ILMN_2947526): 10.05
AVG expression NOC4L (probe ILMN_2957862): 9.678
AVG expression CYP27A1 (probe ILMN_2960108): 6.166
AVG expression CYP27A1 (probe ILMN_2960114): 6.441
AVG expression H2-M2 (probe ILMN_2964185): 6.649
AVG expression CREM (probe ILMN_2964986): 7.2
AVG expression FXYD5 (probe ILMN_2967266): 11.61
AVG expression AMPD1 (probe ILMN_2971142): 6.076
AVG expression FCRLA (probe ILMN_2971171): 10.49
AVG expression BLK (probe ILMN_2976440): 10.05
AVG expression BLK (probe ILMN_2976441): 10.82
AVG expression MAN2A2 (probe ILMN_2977791): 6.779
AVG expression TMED8 (probe ILMN_2979248): 8.811
AVG expression D12ERTD553E (probe ILMN_2983525): 9.137
AVG expression EMP3 (probe ILMN_2984744): 11.52
AVG expression SLC15A3 (probe ILMN_2987709): 10.2
AVG expression STFA1 (probe ILMN_2988931): 7.963
AVG expression CLEC4N (probe ILMN_2993314): 7.76
AVG expression OBFC2A (probe ILMN_2996904): 7.798
AVG expression IL27RA (probe ILMN_3002095): 10.52
AVG expression UNC84B (probe ILMN_3004864): 10.87
AVG expression PPA1 (probe ILMN_3005441): 12.45
AVG expression ASNS (probe ILMN_3006123): 7.885
AVG expression MLKL (probe ILMN_3006767): 8.575
AVG expression ABHD14B (probe ILMN_3007862): 7.744
AVG expression FAM169B (probe ILMN_3014674): 10.41
AVG expression CYP4F18 (probe ILMN_3018445): 6.343
AVG expression KIF1B (probe ILMN_3034877): 7.209
AVG expression GBP2 (probe ILMN_3047389): 7.888
AVG expression GLIPR2 (probe ILMN_3053593): 11.06
AVG expression WARS (probe ILMN_3077377): 7.701
AVG expression AHNAK (probe ILMN_3079919): 7.509
AVG expression CYP4F18 (probe ILMN_3090207): 7.952
AVG expression PKIB (probe ILMN_3094853): 9.029
AVG expression TNFRSF9 (probe ILMN_3103746): 8.744
AVG expression TIMP1 (probe ILMN_3103896): 6.734
AVG expression CETN4 (probe ILMN_3105936): 7.334
AVG expression TXNIP (probe ILMN_3112873): 10.81
AVG expression HSD11B1 (probe ILMN_3115917): 8.516
AVG expression CHI3L3 (probe ILMN_3117876): 7.418
AVG expression LMNA (probe ILMN_3121891): 8.355
AVG expression GBP2 (probe ILMN_3122961): 13.72
AVG expression CD27 (probe ILMN_3128992): 10.96
AVG expression BC004728 (probe ILMN_3130403): 9.315
AVG expression BCAT1 (probe ILMN_3131478): 9.235
AVG expression USP18 (probe ILMN_3131679): 9.931
AVG expression YPEL3 (probe ILMN_3132898): 12.77
AVG expression ANXA3 (probe ILMN_3135781): 7.965
AVG expression SESN1 (probe ILMN_3136744): 9.838
AVG expression LIF (probe ILMN_3137287): 6.404
AVG expression LIF (probe ILMN_3137291): 6.545
AVG expression BTBD11 (probe ILMN_3139253): 6.574
AVG expression SEPP1 (probe ILMN_3141048): 6.844
AVG expression CXCL10 (probe ILMN_3142803): 8.707
AVG expression B3GNT8 (probe ILMN_3149776): 7.035
AVG expression NACC2 (probe ILMN_3153982): 7.11
AVG expression WARS (probe ILMN_3156343): 8.996
AVG expression SYTL3 (probe ILMN_3157081): 7.084
AVG expression PRR7 (probe ILMN_3162239): 7.209
